Measurements: patent US8877748B2, “Heterocyclic fused anthraquinone derivatives, manufacturing method and pharmaceutical composition using thereof” (National Defense Medical Center, priority 2012, dated 2014)

Assays:
HS 578-T = test: NCI one-dose screening, breast cancer HS 578-T; assay type: cell-based, human; settings: 10 μM; Breast cancer
HT29 = test: NCI one-dose screening, colon cancer HT29; assay type: cell-based, human; settings: 10 μM
NCI-H226 = test: NCI one-dose screening, non-small cell lung cancer NCI-H226; assay type: cell-based, human; settings: 10 μM
EKVX = test: NCI one-dose screening, non-small cell lung cancer EKVX; assay type: cell-based, human; settings: 10 μM
OVCAR-4 = test: NCI one-dose screening, ovarian cancer OVCAR-4; assay type: cell-based, human; settings: 10 μM
SF-268 = test: NCI one-dose screening, CNS cancer SF-268; assay type: cell-based, human; settings: 10 μM
SF-539 = test: NCI one-dose screening, CNS cancer SF-539; assay type: cell-based, human; settings: 10 μM
M14 = test: NCI one-dose screening, melanoma M14; assay type: cell-based, human; settings: 10 μM
DU145 = test: NCI one-dose screening, prostate cancer DU145; assay type: cell-based, human; settings: 10 μM
786-O = test: NCI one-dose screening, renal cancer 786-O; assay type: cell-based, human; settings: 10 μM
MDA-MB-468 = test: NCI one-dose screening, breast cancer MDA-MB-468; assay type: cell-based, human; settings: 10 μM
HOP-62 = test: NCI one-dose screening, non-small cell lung cancer HOP-62; assay type: cell-based, human; settings: 10 μM
[1] = tested on: PC-3 prostate cancer cell line; test: SRB assay cell viability, PC-3 prostate cancer cell line; assay type: cell-based, human; settings: Homo sapiens, PC-3 prostate cancer cell line, Table II prints no unit, μM printed, read-out: SRB assay: 50% inhibition of cancer cell proliferation of sample concentration (IC50) of PC-3 prostate cancer cell line
CCRF-CEM = test: NCI screening platform one-dose single concentration screening, leukemia CCRF-CEM; assay type: cell-based, human; settings: 10 μM
PC-3 = test: NCI one-dose screening, prostate cancer PC-3; assay type: cell-based, human; settings: 10 μM
BT-549 = test: NCI one-dose screening, breast cancer BT-549; assay type: cell-based, human; settings: 10 μM
CAKI-1 = test: NCI one-dose screening, renal cancer CAKI-1; assay type: cell-based, human; settings: 10 μM
SK-MEL-28 = test: NCI one-dose screening, melanoma SK-MEL-28; assay type: cell-based, human; settings: 10 μM
ACHN = test: NCI one-dose screening, renal cancer ACHN; assay type: cell-based, human; settings: 10 μM
RXF, 393 = test: NCI one-dose screening, renal cancer RXF, 393; assay type: cell-based, human; settings: 10 μM
UACC-257 = test: NCI one-dose screening, melanoma UACC-257; assay type: cell-based, human; settings: 10 μM
UACC-62 = test: NCI one-dose screening, melanoma UACC-62; assay type: cell-based, human; settings: 10 μM
MDA-MB-231/ATCC = test: NCI one-dose screening, breast cancer MDA-MB-231/ATCC; assay type: cell-based, human; settings: 10 μM
human tumor cell lines = test: NCI one-dose screening, Mean / Delta / Range of growth percent over all tested cell lines; assay type: cell-based; settings: 10 μM
SK-MEL-2 = test: NCI one-dose screening, melanoma SK-MEL-2; assay type: cell-based, human; settings: 10 μM
HCT-15 = test: NCI one-dose screening, colon cancer HCT-15; assay type: cell-based, human; settings: 10 μM
NCI-H23 = test: NCI one-dose screening, non-small cell lung cancer NCI-H23; assay type: cell-based, human; settings: 10 μM
MCF7 = test: NCI one-dose screening, breast cancer MCF7; assay type: cell-based, human; settings: 10 μM
OVCAR-3 = test: NCI one-dose screening, ovarian cancer OVCAR-3; assay type: cell-based, human; settings: 10 μM
COLO 205 = test: NCI one-dose screening, colon cancer COLO 205; assay type: cell-based, human; settings: 10 μM
SR = test: NCI one-dose screening, leukemia SR; assay type: cell-based, human; settings: 10 μM
PRMI-8226 cell line = test: NCI one-dose screening, leukemia PRMI-8226; assay type: cell-based, human; settings: 10 μM
NCI-H460 = test: NCI one-dose screening, non-small cell lung cancer NCI-H460; assay type: cell-based, human; settings: 10 μM
NCI-H322M = test: NCI one-dose screening, non-small cell lung cancer NCI-H322M; assay type: cell-based, human; settings: 10 μM; Non-small cell lung cancer
SNB-75 = test: NCI one-dose screening, CNS cancer SNB-75; assay type: cell-based, human; settings: 10 μM
KM12 = test: NCI one-dose screening, colon cancer KM12; assay type: cell-based, human; settings: 10 μM
SK-MEL-5 = test: NCI one-dose screening, melanoma SK-MEL-5; assay type: cell-based, human; settings: 10 μM
SNB-19 = test: NCI one-dose screening, CNS cancer SNB-19; assay type: cell-based, human; settings: 10 μM
NCI-H522 = test: NCI one-dose screening, non-small cell lung cancer NCI-H522; assay type: cell-based, human; settings: 10 μM
LOX IMVI = test: NCI one-dose screening, melanoma LOX IMVI; assay type: cell-based, human; settings: 10 μM
MALME-3M = test: NCI one-dose screening, melanoma MALME-3M; assay type: cell-based, human; settings: 10 μM
MDA, -MB-435 = test: NCI one-dose screening, breast cancer MDA, -MB-435; assay type: cell-based, human; settings: 10 μM; listed under Melanoma
SF-295 = test: NCI one-dose screening, CNS cancer SF-295; assay type: cell-based, human; settings: 10 μM
HCT-116 = test: NCI one-dose screening, colon cancer HCT-116; assay type: cell-based, human; settings: 10 μM
UO-31 = test: NCI one-dose screening, renal cancer UO-31; assay type: cell-based, human; settings: 10 μM
OVCAR-5 = test: NCI one-dose screening, ovarian cancer OVCAR-5; assay type: cell-based, human; settings: 10 μM
K562cell line = test: NCI one-dose screening, leukemia K562; assay type: cell-based, human; settings: 10 μM
T-47D = test: NCI one-dose screening, breast cancer T-47D; assay type: cell-based, human; settings: 10 μM
IGROV1 = test: NCI one-dose screening, ovarian cancer IGROV1; assay type: cell-based, human; settings: 10 μM
SN12C = test: NCI one-dose screening, renal cancer SN12C; assay type: cell-based, human; settings: 10 μM
HCC-2998 = test: NCI one-dose screening, colon cancer HCC-2998; assay type: cell-based, human; settings: 10 μM
NCl/ADR-RES = test: NCI one-dose screening, breast cancer NCl/ADR-RES; assay type: cell-based, human; settings: 10 μM; listed under Ovarian cancer
HL-60, TB = test: NCI one-dose screening, leukemia HL-60, TB; assay type: cell-based, human; settings: 10 μM
U251 = test: NCI one-dose screening, CNS cancer U251; assay type: cell-based, human; settings: 10 μM
A549/ATCC = test: NCI one-dose screening, non-small cell lung cancer A549/ATCC; assay type: cell-based, human; settings: 10 μM
MOLT-4 = test: NCI one-dose screening, leukemia MOLT-4; assay type: cell-based, human; settings: 10 μM
OVCAR-8 = test: NCI one-dose screening, ovarian cancer OVCAR-8; assay type: cell-based, human; settings: 10 μM
TK-10 = test: NCI one-dose screening, renal cancer TK-10; assay type: cell-based, human; settings: 10 μM

For `O=C1c2ccccc2C(=O)c2c1cc(N1CCSCC1)c1nsnc21` [C15, 4-(thiomorpholino)anthra[2,1-c][1,2,5] thiadiazol-6,11-dione], the “Growth Percent HS 578T” value (HS 578-T) was 84.36%, the “Growth Percent HT29” value (HT29) was 86.91% and the “Growth Percent NCI-H226” value (NCI-H226) was 78.10%. The “Growth Percent EKVX” value (EKVX) was 86.63%, the “Growth Percent OVCAR-4” value (OVCAR-4) was 0.28% and the “Growth Percent SF-268” value (SF-268) was 95.90%. For the same molecule, the “Growth Percent SF-539” value (SF-539) was 90.64%, the “Growth Percent M14” value (M14) was 117.70% and the “Growth Percent DU145” value (DU145) was 79.83%. For the same molecule, the “Growth Percent 786-0” value (786-O) was 120.26%, the “Growth Percent MDA-MB-468” value (MDA-MB-468) was 12.59% and the “Growth Percent HOP-62” value (HOP-62) was 76.66%. The IC50 [1] was greater than 15 µM, the “Growth Percent CCRF-CEM” value (CCRF-CEM) was 43.60% and the “Growth Percent PC-3” value (PC-3) was 56.99%. The “Growth Percent BT-549” value (BT-549) was 104.74%, the “Growth Percent CAKI-1” value (CAKI-1) was 76.06% and the melting point was 219 to 220 °C. The “Growth Percent SK-MEL-28” value (SK-MEL-28) was 90.60%, the “Growth Percent ACHN” value (ACHN) was 83.52% and the “Growth Percent RXF 393” value (RXF, 393) was 85.93%. The “Growth Percent UACC-257” value (UACC-257) was 35.78%, the “Growth Percent UACC-62” value (UACC-62) was 83.96% and the “Growth Percent MDA-MB-231/ATCC” value (MDA-MB-231/ATCC) was 45.69%. For the same molecule, the “Growth Percent Delta” value (human tumor cell lines; delta over all cell lines) was 70.03%, the “Growth Percent Mean” value (human tumor cell lines; mean over all cell lines) was 70.31% and the “Growth Percent Range” value (human tumor cell lines; range over all cell lines) was 119.98%. The “Growth Percent SK-MEL-2” value (SK-MEL-2) was 43.98%, the “Growth Percent HCT-15” value (HCT-15) was 61.93% and the “Growth Percent NCI-H23” value (NCI-H23) was 33.45%. For the same molecule, the “Growth Percent MCF7” value (MCF7) was 49.73%, the “Growth Percent OVCAR-3” value (OVCAR-3) was 41.52% and the “Growth Percent COLO 205” value (COLO 205) was 107.31%. For the same molecule, the “Growth Percent SR” value (SR) was 55.02%, the “Growth Percent RPMI-8226” value (PRMI-8226 cell line) was 56.96% and the “Growth Percent NCI-H460” value (NCI-H460) was 87.46%. The “Growth Percent NCI-H322M” value (NCI-H322M) was 91.69%, the “Growth Percent SNB-75” value (SNB-75) was 105.73% and the “Growth Percent KM12” value (KM12) was 83.12%. For the same molecule, the “Growth Percent SK-MEL-5” value (SK-MEL-5) was 22.81%, the “Growth Percent SNB-19” value (SNB-19) was 100.15% and the “Growth Percent NCI-H522” value (NCI-H522) was 38.70%. The “Growth Percent LOX IMVI” value (LOX IMVI) was 30.16%, the “Growth Percent MALME-3M” value (MALME-3M) was 48.56% and the “Growth Percent MDA-MB-435” value (MDA, -MB-435) was 77.03%. For the same molecule, the “Growth Percent SF-295” value (SF-295) was 94.85%, the “Growth Percent HCT-116” value (HCT-116) was 88.21% and the “Growth Percent UO-31” value (UO-31) was 61.00%. For the same molecule, the “Growth Percent OVCAR-5” value (OVCAR-5) was 112.62%, the “Growth Percent K562” value (K562cell line) was 59.58% and the “Growth Percent T-47D” value (T-47D) was 56.78%. The “Growth Percent IGROV1” value (IGROV1) was 75.28%, the “Growth Percent SN12C” value (SN12C) was 76.76% and the “Growth Percent HCC-2998” value (HCC-2998) was 107.83%. For the same molecule, the “Growth Percent NCI/ADR-RES” value (NCl/ADR-RES) was 54.16%, the “Growth Percent HL-60(TB)” value (HL-60, TB) was 51.57% and the “Growth Percent U251” value (U251) was 40.24%. For the same molecule, the “Growth Percent A549/ATCC” value (A549/ATCC) was 62.74%, the “Growth Percent MOLT-4” value (MOLT-4) was 42.86% and the “Growth Percent OVCAR-8” value (OVCAR-8) was 41.72%. For the same molecule, the “Growth Percent TK-10” value (TK-10) was 106.46%.
